Experimental findings from patent US20040116499A1, “Indole derivatives having an inhibitory effect on protein kinases” (priority 2001, published 2004) are described below.

The subject of this experiment is protein kinase C. The experiment can be described thus: Inhibition of the protein kinase C activity in vitro (protein kinase C assay kit, Calbiochem). The class given is biochemical. To be noted: both isomers as well as the racemate; test not specified at the place. The protocol: For testing the inhibitory effect on protein kinase C a commercially available protein kinase C assay kit (e.g. Calbiochem, Cat. No. 538484) may be employed. For this purpose the phosphorylation of a pseudosubstrate is measured by means of a specific antibody. The substances to be investigated are employed as solution in dimethylsulfoxid. […] By means of this assay the effects on individual PKC isoforms and the inhibition thereof may be tested. The effective concentration may be then determined at a given ATP concentration.
According to this Calbiochem kit it is worked with a batch of 200 μl/well in the following manner: 13 μl of buffer solution, 26 μl of 1 mM ATP (pH 7.0), 13 μl of phosphatidyl serine (500 μg/ml), 13 μl of 20 mM CaCl2, 65 μl of H2O and 55 μl of H2O, respectively, and 10 μl of inhibitor solution in DMSO are mixed, wherein 108 μl are added to an uncoated well. 12 μl of PKC solution (protein content and activity respectively of 0.1 U/12 μl) are added thereto and 100 μl thereof are added to the coated microtiter plate. After incubation for 20 min at room temperature 100 μl stop solution is added. Then washing is done five times with washing solution. […] Thereafter there is again a treatment with 100 μl of stop solution, and then the measurement is done in the Elisa reader at 492 nm. […]

Regarding `O=C(O)C1Cc2c([nH]c3ccccc23)C2(N1)C(=O)C(c1c[nH]c3ccccc13)=C(c1c[nH]c3ccccc13)C2=O` (stereo not shown) [Pityriarubine A], the inhibitory effect entry is on record as “distinct inhibitory effect”.
